From patent US20250327023A1, “TAURINE SUPPLEMENTED CELL CULTURE MEDIUM AND METHODS OF USE” (Regeneron Pharmaceuticals, Inc., priority 2015, published 2025)

Tests used:
Assay type in all cases: cell-based, Chinese hamster
[1] = tested on: monoclonal antibody (Ab1) producing cell line derived from CHO-K1; test: High-throughput shake flask culture, 17 days, antibody titer (Example 1A); settings: 1 mM taurine at day 0
Description: Example 1A—High-Throughput Shake Flask Culture: 250 mL shake flasks were inoculated from a seed culture of a monoclonal antibody (Abl) producing cell line derived from CHO-K1. The inoculated cells were grown at 35.5° C. for seventeen days and fed glucose and other supplemental nutrients as needed. Cells were grown in chemically defined (hydrolysate-free and serum-free) base media. Each culture flask was either unsupplemented (Flask 1a), or supplemented with 1 mM taurine at day 0 (Flask 1 b).

[2] = tested on: Ab1-producing CHO cells; test: Shake flask culture, taurine in seed train expansion and/or production phase, 17 days, antibody titer (Example 3A); settings: day 17
Description: The benefits of adding taurine to the culture during the expansion seed train phase were assessed in the high-throughput shake flask model. In flask 6a (Table 6), the Ab1-producing CHO cells were thawed in chemically defined (hydrolysate-free and serum-free) base media supplemented with 1 mM taurine. Taurine concentration of basal medium was maintained at 1 mM throughout the expansion phase. During production, the culture basal medium was supplemented with 1 mM taurine on day 0. Glucose and nutrient basal feed were supplied as needed during the 17 day production. Flask 6b cells grew in taurine-free (unsupplemented) chemically defined (hydrolysate-free and serum-free) basal medium throughout the seed train expansion phase. At day 0 of production, the culture basal medium was supplemented with 1 mM taurine. For the 17 day production, glucose and nutrient basal feeds were supplied as needed.

[3] = tested on: monoclonal antibody (Ab1) producing cell line derived from CHO-K1; test: Shake flask culture with varying taurine concentrations, 14 days, antibody titer (Example 2); settings: for Ab1 % titer increase vs unsupplemented: day 14
Description: Consistency of the protein titer was tested by varying the amount of taurine added to the culture at production day 0. 250 mL shake flasks were inoculated from a seed culture of a monoclonal antibody (Ab1) producing cell line derived from CHO-K1. The inoculated cells were grown at 35.5° C. for fourteen days and fed glucose and other supplemental nutrients as needed. Cells were grown in chemically defined (hydrolysate-free and serum-free) base media. Each culture contained either no taurine (unsupplemented) or taurine at 0.1 mM, 0.3 mM, 0.5 mM, 0,7 mM, 1 mM, 3 mM, 5 mM, 7,5 mM or 10 mM concentrations.

[4] = tested on: Ab1-producing CHO cells; test: Ammonia by-product in shake flask culture (Example 4); settings: taurine supplemented medium
Description: […] The cells were subjected to varying culture conditions similar to above where glucose/nutrient base feed was added as needed.

[5] = tested on: monoclonal antibody (Ab4) producing cell line derived from CHO-K1; test: Benchtop-scale 2L bioreactor culture, 14 days, antibody titer (Example 1B), Ab4; settings: about 3 mM taurine on day 0, day 14; for Ab4 approximate titer increase relative to baseline: Bioreactor 4b vs 4a
Description: (§1) Example 1B—Benchtop-Scale Bioreactors: In a similar example, yet on a larger scale of production, 2L bioreactors were inoculated from a seed culture of a monoclonal antibody (Ab2, Ab3 or Ab4) producing cell line derived from CHO-K1. The inoculated cultures were grown at a temperature of 35.5° C., DO set point of 40.4% and air sparge of 22 ccm for 14 days. […] Glucose, antifoam and basal feed were supplied to the bioreactors as needed. Cultures were grown in unsupplemented medium (Bioreactor 2a, 3a, 4a) or grown in about 1 mM taurine-supplemented medium (Ab2 and Ab3) or about 3 mM taurine-supplemented medium (Ab4), added on day 0 of production (Bioreactors 2b, 3b and 4b, respectively).

[6] = tested on: Ab1-producing CHO cells; test: Shake flask culture, varying taurine feeding schedules during production phase, antibody titer (Example 3B)
Description: Example 3B: Varying Taurine Feeding Schedules during Production Phase: To determine whether varying standard feeding schedules of taurine had any effect on the protein titer for taurine-supplemented cultures, additional experiments were conducted in analogous shake flask cultures growing Ab1-producing CHO cells. The cells were subjected to varying culture conditions similar to Example 2, where the feeding schedule was the same as before, glucose/nutrient basal feed was added as needed. Ab1-producing cultures were supplemented with a total of 5 mM taurine Similar productivity (7.1 g/L, 6.8 g/L and 7.0 g/L) is observed in varying taurine feeding schedules. Titer values as compared in this experiment are not statistically different (p>0.1) (see Table 7).

[7] = tested on: monoclonal antibody (Ab2) producing cell line derived from CHO-K1; test: Benchtop-scale 2L bioreactor culture, 14 days, antibody titer (Example 1B), Ab2; settings: about 1 mM taurine on day 0, day 14; for Ab2 approximate titer increase relative to baseline: Bioreactor 2b vs 2a
Description: as §1

[8] = tested on: monoclonal antibody (Ab3) producing cell line derived from CHO-K1; test: Benchtop-scale 2L bioreactor culture, 14 days, antibody titer (Example 1B), Ab3; settings: about 1 mM taurine on day 0; for Ab3 approximate titer increase at day 6 compared to unsupplemented medium collected on same day / Ab3 approximate titer increase at day 9 compared to unsupplemented medium collected on same day / Ab3 approximate titer increase relative to baseline: Bioreactor 3b vs 3a
Description: as §1

[9] = 0.1 mM taurine at day 0, shake flask 5b
[10] = 0.3 mM taurine at day 0, shake flask 5c
[11] = 0.5 mM taurine at day 0, shake flask 5d
[12] = 0.7 mM taurine at day 0, shake flask 5e
[13] = 1 mM taurine at day 0, shake flask 5f
[14] = 5 mM taurine at day 0, shake flask 5g
[15] = 7.5 mM taurine at day 0, shake flask 5h
[16] = 10 mM taurine at day 0, shake flask 5i

NCCS(=O)(=O)O [Taurine, 2-aminoethanesulfonic acid]
Abl Titer (average 17-day antibody titer) ([1]; 250 mL shake flask 1b, harvested day 17): 7.9 g/L | Approximate titer increase relative to baseline ([1]; day 17, Flask 1b vs unsupplemented Flask 1a): 8% | Ab1 Titer (average 17-day) ([2]; 1 mM taurine in Only Production Phase, shake flask 6b): 7.8 g/L | Ab1 Titer (average 17-day) ([2]; 1 mM taurine in Seed Train and Production Phases, shake flask 6a): 7.7 g/L | Ab1 Titer (average 14-day) [3, 9]: 6.7 g/L | Ab1 % titer increase vs unsupplemented [3, 9]: 3% | Ab1 Titer (average 14-day) [3, 10]: 6.8 g/L | Ab1 % titer increase vs unsupplemented [3, 10]: 5% | Ab1 Titer (average 14-day) [3, 11]: 6.9 g/L | Ab1 % titer increase vs unsupplemented [3, 11]: 6% | Ab1 Titer (average 14-day) [3, 12]: 7.0 g/L | Ab1 % titer increase vs unsupplemented [3, 12]: 8% | Ab1 Titer (average 14-day) [3, 13]: 7.0 g/L | Ab1 % titer increase vs unsupplemented [3, 13]: 8% | Ab1 Titer (average 14-day) [3, 14]: 7.1 g/L | Ab1 % titer increase vs unsupplemented [3, 14]: 9% | Ab1 Titer (average 14-day) [3, 15]: 7.1 g/L | Ab1 % titer increase vs unsupplemented [3, 15]: 9% | Ab1 Titer (average 14-day) [3, 16]: 7.1 g/L | Ab1 % titer increase vs unsupplemented [3, 16]: 9% | Abl Ammonia (average 17-day ammonia) [4]: 1.73 mM″ | Ammonia decrease compared to unsupplemented medium ([4]; listed as taurine): 32% | Ab4 Titer (average 14 day antibody titer) ([5]; Bioreactor 4b): 5.3 g/L | Ab4 approximate titer increase relative to baseline [5]: 20% | Ab4 approximate titer increase relative to baseline ([5]; listed as taurine): 20% | Ab1 Day 14 Titer ([6]; taurine schedule: 1 mM day 0, 2 mM days 7, 10 (5 mM total)): 7.0 g/L | Ab1 Day 14 Titer ([6]; taurine schedule: 1 mM days 0, 3, 5, 7, 10 (5 mM total)): 6.8 g/L | Ab1 Day 14 Titer ([6]; taurine schedule: 5 mM day 0): 7.1 g/L | Ab2 Titer (average 14 day antibody titer) ([7]; Bioreactor 2b): 8 g/L | Ab2 approximate titer increase relative to baseline [7]: 24% | Ab2 approximate titer increase relative to baseline ([7]; listed as taurine): 24% | Ab3 Titer at day 6 ([8]; Bioreactor 3b, day 6): 1.9 g/L | Ab3 Titer at day 9 ([8]; Bioreactor 3b, day 9): 5.3 g/L | Ab3 Titer (average 14 day antibody titer) ([8]; Bioreactor 3b, day 14): 7.3 g/L | Ab3 approximate titer increase at day 6 compared to unsupplemented medium collected on same day ([8]; day 6): 12% | Ab3 approximate titer increase at day 6 compared to unsupplemented medium collected on same day ([8]; day 6, listed as taurine): 12% | Ab3 approximate titer increase at day 9 compared to unsupplemented medium collected on same day ([8]; day 9): 29% | Ab3 approximate titer increase at day 9 compared to unsupplemented medium collected on same day ([8]; day 9, listed as taurine): 29% | Ab3 approximate titer increase relative to baseline ([8]; day 14): 11% | Ab3 approximate titer increase relative to baseline ([8]; day 14, listed as taurine): 11%
